These results are taken from patent US7273856B2, “Linear basic compounds having NK-2 antagonist activity and formulations thereof” (Menarini Ricerche S.P.A., priority 2001, dated 2007).

The target in the experiment is T1, human NK-2 receptor (Homo sapiens, UniProt P21452).
T1 construct: expressed in transfected cells; host or cells: CHO (Chinese hamster ovary) cells, membranes
T1 sequence (P21452 1-398): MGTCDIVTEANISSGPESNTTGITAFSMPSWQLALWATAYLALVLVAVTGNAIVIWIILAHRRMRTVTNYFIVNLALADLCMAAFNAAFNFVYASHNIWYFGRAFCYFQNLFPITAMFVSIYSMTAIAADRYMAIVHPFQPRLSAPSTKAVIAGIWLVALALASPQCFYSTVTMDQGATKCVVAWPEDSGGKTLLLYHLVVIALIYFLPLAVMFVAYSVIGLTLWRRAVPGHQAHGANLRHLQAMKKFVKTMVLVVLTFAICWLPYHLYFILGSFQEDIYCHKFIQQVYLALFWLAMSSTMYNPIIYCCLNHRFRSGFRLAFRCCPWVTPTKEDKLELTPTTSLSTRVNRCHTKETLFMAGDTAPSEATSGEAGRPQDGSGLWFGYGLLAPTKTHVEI
Description: binding test, affinity for the human NK-2 receptor, competition with [125I]NKA on transfected CHO cell membranes. The conditions noted are these: CHO cell membranes transfected with NK-2 receptor of human ileum; [125I]NKA 100 pM; 30 min, 20° C. Here is the method: The evaluation of the antagonist activity on NK-2 receptors has been assessed by binding and functional tests according to that already described in literature in relation to NK-2 antagonists.
The test substances have been tested within a concentration range from 0.01 nM to 10 nM. At the end of the incubation time (30 min, 20° C.) the samples have been filtered and radioactivity has been determined using a gamma-counter.

Where a name gives a salt, the structure may show the parent alone.

A word on the pKi: it is the Ki on a negative log10 scale, so that one unit is a factor of ten. A low value points to a large Ki. For the compound `O=C(NC1(C(=O)N[C@H](Cc2ccccc2)C(=O)NCC2CCN(CC3CCOCC3)CC2)CCCC1)c1ccc2cc(Br)ccc2c1` [Example 72, 6-Bromo-naphthalene-2-carboxylic acid [1-(2-phenyl-1(R)-{[-(tetrahydro-pyran-4-ylmethyl)-piperidin-4-ylmethyl]-carbamoyl}-ethylcarbamoyl)-cyclopentyl]-amide], the pKi was found to be 10.0.
The Ki is a measure of affinity in units of concentration, obtained from inhibition or displacement. Lower therefore signals tighter binding. The compound `CCN1CCC(CNC(=O)[C@@H](Cc2ccccc2)NC(=O)C2(NC(=O)c3ccc4cc(Br)ccc4c3)CCCC2)CC1` [Example 76, 6-Bromo-naphthalene-2-carboxylic acid (1-{1(R)-[(1-ethyl-piperidin-4-ylmethyl)-carbamoyl]-2-phenyl-ethylcarbamoyl}-cyclopentyl)-amide] had an inhibition constant Ki of 1 nM.
On the same count and under the same terms, the result for `O=C(NC1(C(=O)N[C@H](Cc2ccccc2)C(=O)NCC2CCN(CCC3CCOCC3)CC2)CCCC1)c1cc2ccccc2s1` [Example 78, Benzo[b]thiophene-2-carboxylic acid {1-[2-phenyl-1(R)-({1-[2-(tetrahydro-pyran-4-yl)-ethyl]-piperidin-4-ylmethyl}-carbamoyl)-ethylcarbamoyl]-cyclopentyl}-amide] reads 1 nM; that for `O=C(NC1(C(=O)N[C@H](Cc2ccccc2)C(=O)NCC2CCN(CC3CCCCC3)CC2)CCCC1)c1cc2ccccc2s1` [Example 79, Benzo[b]thiophene-2-carboxylic acid (1-{1(R)-[(1-cyclohexylmethyl-piperidin-4 ylmethyl)-carbamoyl]-2-phenyl-ethylcarbamoyl}-cyclopentyl)-amide], 0.0631 nM; that for `O=C(NC1(C(=O)N[C@H](Cc2ccccc2)C(=O)NCC2CCN(C3CCOCC3)CC2)CCCC1)c1ccc2cc(Br)ccc2c1` [Example 80, 6-Bromo-naphthalene-2-carboxylic acid [1-(2-phenyl-1(R)-{[1-(tetrahydro-pyran-4-yl)-piperidin-4-ylmethyl]-carbamoyl}-ethylcarbamoyl)-cyclopentyl]-amide], 0.251 nM.
Compound `O=C(NC1(C(=O)N[C@H](Cc2ccccc2)C(=O)NCC2CCN(C3CCSCC3)CC2)CCCC1)c1cc2ccccc2s1` [Example 81, Benzo[b]thiophene-2-carboxylic acid [1-(2-phenyl-1(R)-{[1-(tetrahydro-thiopyran-4-yl)-piperidin-4-ylmethyl]-carbamoyl}-ethylcarbamoyl)-cyclopentyl]-amide TFA salt] showed a Ki of 0.0794 nM.
`O=C(NC1(C(=O)N[C@H](Cc2ccccc2)C(=O)NCC2CCN(CC3CCSCC3)CC2)CCCC1)c1cc2ccccc2s1` [Example 82, Benzo[b]thiophene-2-carboxylic acid [1-(2-phenyl-1(R)-{[1-(tetrahydro-thiopyran-4-ylmethyl)-piperidin-4-ylmethyl]-carbamoyl}-ethylcarbamoyl)cyclopentyl]-amide] gave a Ki of 0.1 nM.
Same read-out and setting: the value for `O=C(NC1(C(=O)N[C@H](Cc2ccccc2)C(=O)NCCC2CCN(C[C@@H]3CCCN3)CC2)CCCC1)c1ccc2cc(Br)ccc2c1` [Example 84, 6-Bromo-naphthalene-2-carboxylic acid (1-{2-phenyl-1(R)-[2-(1-pyrrolidin-2(S)-ylmethyl-piperidin-4-yl)ethylcarbamoyl]-ethylcarbamoyl}-cyclopentyl)amide TFA salt] was 0.316 nM.
Still for that read-out and setting: the value for `N#CCN1CCC(CCNC(=O)[C@@H](Cc2ccccc2)NC(=O)C2(NC(=O)c3cc4ccccc4s3)CCCC2)CC1` [Example 87, Benzo[b]thiophene-2-carboxylic acid (1-{1(R)-[2-(1-cyanomethyl-piperidin-4-yl)-ethylcarbamoyl]-2-phenyl-ethylcarbamoyl}-cyclopentyl)-amide TFA salt] was 1.26 nM; that for `O=C(NC1(C(=O)N[C@H](Cc2ccccc2)C(=O)NCC2CCN(CC3COCOC3)CC2)CCCC1)c1cc2ccccc2s1` [Example 88, Benzo[b]thiophene-2-carboxylic acid (1-{1(R)-[(1-[1,3]dioxan-5-ylmethyl-piperidin-4-ylmethyl)carbamoyl]-2-phenyl-ethylcarbamoyl}-cyclopentyl)-amide TFA salt] was 0.794 nM.
On the same count and under the same terms, the value for `O=C(NC1(C(=O)N[C@H](Cc2ccccc2)C(=O)NCC2CCN(CC3COCOC3)CC2)CCCC1)c1ccc2cc(Br)ccc2c1` [Example 89, 6-Bromo-naphthalene-2-carboxylic acid (1-{1(R)-[(1-[1,3]dioxan-5-ylmethyl-piperidin-4-ylmethyl)-carbamoyl]-2-phenyl-ethylcarbamoyl}-cyclopentyl)-amide] was 0.126 nM; that for `O=C(NC1(C(=O)N[C@H](Cc2ccccc2)C(=O)NCC2CCN(CC3COCOC3)CC2)CCCC1)c1cc2cc(Cl)ccc2o1` [Example 91, 5-Chloro-benzofuran-2-carboxylic acid (1-{1(R)-[(1-[1,3]dioxan-5-ylmethyl-piperidin-4-ylmethyl)-carbamoyl]-2-phenyl-ethylcarbamoyl}-cyclopentyl)-amide] was 1 nM; that for `O=C(NC1(C(=O)N[C@H](Cc2ccccc2)C(=O)NCC2CCN(C3CCSCC3)CC2)CCCC1)c1cc2cc(Cl)ccc2o1` [Example 93, 5-Chloro-benzofuran-2-carboxylic acid [1-(2-phenyl-1(R)-{[1-(tetrahydro-thiopyran-4-yl)-piperidin-4-ylmethyl]-carbamoyl}-ethylcarbamoyl)cyclopentyl]-amide] was 0.0794 nM.
The compound `O=C(NC1(C(=O)N[C@@H](CNCCC2CCN(C(=O)Cc3cccs3)CC2)Cc2ccccc2)CCCC1)c1cc2ccccc2s1` [Example 94, Benzo[b]thiophene-2-carboxylic acid [1-(1(R)benzyl-2-{2-[1-(thiophen-2-yl-acetyl)-piperidin-4-yl]-ethylamino}-ethylcarbamoyl)-cyclopentyl]-amide TFA salt] showed a Ki of 0.631 nM.
`NC1(C(=O)NCCNC(=O)[C@@H](Cc2ccccc2)NC(=O)C2(NC(=O)c3cc4ccccc4s3)CCCC2)CCCCC1` [Example 95]: the affinity, expressed as Ki, was 1.58 nM.
The same measure, in the same setting: the value for `NC1(C(=O)N2CCC(CNC(=O)[C@@H](Cc3ccccc3)NC(=O)C3(NC(=O)c4cc5ccccc5s4)CCCC3)CC2)CCCCC1` [Example 96, Benzo[b]thiophene-2-carboxylic acid [1-(1(R)-{[1-(1-aminocyclohexanecarbonyl)-piperidin-4-ylmethyl]-carbamoyl}-2-phenyl-ethylcarbamoyl)-cyclopentyl]-amide TFA salt] was 0.1 nM.
The same measure, in the same setting: the result for `NC1(C(=O)N2CCC(CNC(=O)[C@@H](Cc3ccccc3)NC(=O)C3(NC(=O)c4ccc5cc(Br)ccc5c4)CCCC3)CC2)CCCCC1` [Example 97, 6-Bromo-naphthalene-2-carboxylic acid [1-(1(R)-{[1-(1-amino-cyclohexanecarbonyl)-piperidin-4-ylmethyl]-carbamoyl}-2-phenyl-ethylcarbamoyl)-cyclopentyl]-amide] reads 0.02 nM; that for `O=C(NC1(C(=O)N[C@H](Cc2ccccc2)C(=O)NCCC2CCN(C(=O)[C@H]3CCCN3)CC2)CCCC1)c1ccc2cc(Br)ccc2c1` [Example 99, 6-Bromo-naphthalene-2-carboxylic acid [1-(2-phenyl-1(R)-{2-[1-(pyrrolidine-2(R)-carbonyl)-piperidin-4-yl]-ethylcarbamoyl}-ethylcarbamoyl)-cyclopentyl]-amide], 0.316 nM.
